# Laboratory results taken from PubChem BioAssay (NCI).
#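 Dose response: 5 concentrations. Exposure: 48 h. Format: 96-well plates. Endpoint: linear interpolation; highest concentration if not reached. GI50: concentration for 50% inhibition of growth. TGI: total growth inhibition.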
# Assays:
# Assay in all cases: NCI anticancer screen, dose series, 48 h
# TK-10 renal = system: TK-10 renal
# SNB-75 CNS = system: SNB-75 CNS
# SNB-19 CNS = system: SNB-19 CNS
# RXF 393 renal = system: RXF 393 renal
# SK-MEL-5 melanoma = system: SK-MEL-5 melanoma
# SK-OV-3 ovarian = system: SK-OV-3 ovarian
# U251 CNS = system: U251 CNS
# HL-60(TB) leukemia = system: HL-60(TB) leukemia
# MOLT-4 leukemia = system: MOLT-4 leukemia
# CCRF-CEM leukemia = system: CCRF-CEM leukemia
SMILES,TGI (TK-10 renal) [µM],TGI (SNB-75 CNS) [µM],TGI (SNB-19 CNS) [µM],TGI (RXF 393 renal) [µM],TGI (SK-MEL-5 melanoma) [µM],TGI (SK-OV-3 ovarian) [µM],TGI (U251 CNS) [µM],TGI (HL-60(TB) leukemia) [µM],TGI (MOLT-4 leukemia) [µM],TGI (CCRF-CEM leukemia) [µM],GI50 (SNB-75 CNS) [µM],GI50 (SK-MEL-5 melanoma) [µM],GI50 (SK-OV-3 ovarian) [µM],GI50 (U251 CNS) [µM],GI50 (HL-60(TB) leukemia) [µM],GI50 (MOLT-4 leukemia) [µM],GI50 (TK-10 renal) [µM],GI50 (CCRF-CEM leukemia) [µM],GI50 (SNB-19 CNS) [µM],GI50 (RXF 393 renal) [µM]
Nc1ncn(C2C=C(CO)C(O)C2O)c(=O)n1 (configuration not stated),> 100,> 100,> 100,> 100,> 100,> 100,> 100,> 100,> 100,,,,,,,,,,,
COC(=O)C12CC3CC(C1)CC(C(=O)OC)(C3)C2,> 100,> 100,> 100,,> 100,> 100,> 100,> 100,> 100,> 100,,,,,,,,,,
CC[O-].CC[O-].O=C1C(c2ccccc2)=C([O-])c2ccccc21.O=C1C(c2ccccc2)=C([O-])c2ccccc21.[Ti+4],,> 100,,,> 100,> 100,> 100,> 100,> 100,,> 100,> 100,> 100,> 100,> 100,> 100,,,,
COc1ccc2c(c1)CCc1[nH]c3ccccc3c1CCCC2,> 10,> 10,> 10,,> 10,> 10,> 10,> 10,> 10,> 10,,,,,,,,,,
COc1cc(C(=O)C/C(CCC(=O)Nc2ccc(Cl)cc2C)=N/NC(=O)C(N)=O)ccc1O,> 100,,> 100,,> 100,> 100,> 100,> 100,> 100,> 100,,,,,,,,,,
CCCCCCCCCCC(O)C1CCC(C(O)CCC(O)C2CCC(CCCCCCC[C@H](O)CC3=C[C@@H](C)OC3=O)O2)O1 (some centres not stated),> 100,25.4,> 88.3,33.9,> 64.3,> 66.1,> 100,13.4,> 100,,2.92,5.97,,,,,,,,
Cc1ccc(NC(=O)CC(=O)n2nc(-c3ccccc3)c(N=Nc3ccccc3Cl)c2-c2ccccc2)cc1,> 100,42.1,> 100,,> 100,60.5,> 100,> 100,> 100,> 100,,,,,93.8,> 100,,,,
CC(C)CNc1nc(-c2ccccc2)nc2ccccc12,26.6,,39.6,31.8,29,31.3,24.8,,38.1,36.6,,15.2,15.3,12.2,,13.7,13.6,15.3,19.2,12.7
O=C([CH-]C(=O)c1ccccc1)c1ccccc1.O=C([CH-]C(=O)c1ccccc1)c1ccccc1.O=C([CH-]C(=O)c1ccccc1)c1ccccc1.[OH3+].[Y+3],68.4,8.1,56.4,,13.9,40,24.2,11.5,20.5,,3.25,3.72,11.2,2.93,2.4,2.96,7.78,,8.04,
COc1ccc(C2=C(c3ccc(OC)c(OC)c3)C(=O)OC2)cc1,16.5,,> 100,> 100,2.57,> 100,> 59.6,1.51,,0.826,,< 0.05,,< 0.01,,< 0.0208,,0.206,0.263,0.0792
CCCN1CCN(c2ccc3nc(-c4ccc5nc(-c6cc(OC)ccc6OC)[nH]c5c4)[nH]c3c2)CC1,,26.2,,3.17,34.1,,3.1,8.91,4.31,4.49,12.8,15.1,,1.69,3.12,2.09,,2.22,,1.65
Cc1cc(C)nc(NS(=O)(=O)c2ccc(Nc3c4ccc(Cl)cc4nc4c(C(=O)Nc5ccc(S(=O)(=O)N=C(N)N)cc5)cccc34)cc2)n1,> 100,> 100,> 100,> 100,,> 100,> 100,,> 100,> 100,,,,,,,,,,
CCc1nc(N)nc(C(=O)NCCNC(=O)c2nc(N)nc(CC)c2C)c1C,> 100,> 100,> 100,> 100,> 100,,> 100,> 100,> 100,,,,,,,,,,,
CC(C)C1CCC/C=C/C=C/C=C/C=C/C(OC2OC(C)C(O)C(N)C2O)CC2OC(O)(CC(O)CC(O)C(O)CCC(=O)O1)CC(O)C2C(=O)O (configuration not stated),,> 52.5,> 52.5,,> 52.5,> 52.5,> 52.5,> 52.5,> 52.5,> 52.5,,,,,,,,,,
CC[Si](CC)(CC)OC[C@]1([C@@H]2COC(C)(C)O2)CC=CC(=O)O1,79,,> 100,> 100,40,> 100,> 100,,> 100,> 100,,19,59.9,42.2,,31.7,24.2,6.46,34.7,48
CC(=O)/C(=C\C1=CCCO1)C(=O)Nc1ccccc1C,> 100,,> 100,> 100,> 100,> 100,> 100,> 100,> 100,> 100,,,,,,,,,,
O=S(=O)(c1ccc(N=C2NN=C(c3c[nH]c4ccccc34)CS2)cc1)N1CCOCC1,> 100,> 100,> 100,,16.4,> 100,> 100,> 100,40.9,58.8,21.6,2.51,> 100,8.48,2.25,3.93,26.3,4.69,45.6,
CC/C(=C(/CC)c1ccc(O)cc1)c1ccc([O-])cc1.CC/C(=C(/CC)c1ccc(O)cc1)c1ccc([O-])cc1.O=C([CH-]C(=O)c1ccccc1)c1ccccc1.O=C([CH-]C(=O)c1ccccc1)c1ccccc1.[Ti+4],76.9,,27.8,25.7,,52.2,26.9,,> 100,> 100,,,19.8,13.9,,4.93,30.2,4.57,14.7,10.7
CCCC(C)C[C@@H](C)CC(C)/C=C(\C)c1oc(=O)c(C)c(O)c1C (some centres not stated) (tested in a mixture with another compound),33.7,28.3,28,26.6,,,27.6,29.8,,,,,,,,,,,,
CN(C)CC/C(=N\Nc1ccccc1)c1ccccc1,41.2,,> 100,> 100,35.6,34.7,> 100,,> 100,,,,,,,,,,,
Cc1cccc(Cl)c1NC(=O)/C=C/c1ccccc1,> 100,87.1,> 100,,> 100,> 100,> 100,> 100,> 100,> 100,,,,,,,,,,
O=C1c2ccccc2C2(O)NC(=S)N(c3ccccc3)C12O (configuration not stated),> 100,> 100,> 100,,,> 100,> 100,> 100,> 100,> 100,,,,,,,,,,
O=c1[nH]c2c3ccccc3ccc2c2cc3c(cc12)OCO3,> 100,> 100,> 100,> 100,> 100,> 100,> 100,,> 100,> 100,,,,,,,,,,
O=C(O)CC12C3C4C5C3C1C5C42 (configuration not stated),> 100,> 100,> 100,,> 100,> 100,> 100,> 100,> 100,> 100,,,,,,,,,,
Cc1ccc(NC(=O)CCC/C(CC(=O)c2ccc(Br)cc2)=N/NC(=O)CC#N)cc1,> 100,> 100,> 100,> 100,> 100,,> 100,> 100,> 100,> 100,,,,,,,,,,
COC(=O)C(=O)C(C#N)c1ccc(CC#N)cc1 (configuration not stated),> 100,> 100,> 100,,,> 100,> 100,> 100,> 100,> 100,,,,,,,,,,
COc1cccc(-c2nc3sccn3c2-c2ccnc(NCCNS(=O)(=O)c3ccccc3)c2)c1,57.2,,> 100,> 100,4.89,> 100,> 100,5.56,> 100,> 100,,1.53,5.11,3.9,1.71,2.03,3.58,1.88,5.92,2.11
Cc1nc2cc(N)c(F)cc2[nH]1,> 100,,> 100,> 100,> 100,> 100,> 100,> 100,> 100,> 100,,,,,,,,,,
